Measurements: US12649942B2, “Carotenoids for treating or preventing nausea” (priority 2019, dated 2026)

Columns and labels:
pgp-5p::gfp [1] = assay: pgp-5p::gfp induction in eft-3(q145);pgp-5p::gfp animals (translation deficit); type: in vivo, C. elegans; conditions: vs mock-treated
pgp-5p::gfp [2] = assay: pgp-5p::gfp induction in response to hygromycin, emetine or cisplatin; type: in vivo, C. elegans; conditions: animals fed E. coli OP50; hygromycin 10 μg/ml, emetine 6.25 μg/ml, cisplatin 1 mM
Description: Hygromycin diluted in M9 solution to the desired concentration was added onto E. coli OP50 bacteria containing NGM plates. […] For the xenobiotic experiments, synchronized L1-stage animals were dropped onto the drug containing plates and scored 4 days later.

C. elegans = assay: food aversion behavior; type: in vivo; conditions: for food aversion induced by the drug: in vivo
Description: In some embodiments, a food aversion assay as described herein is used. In some embodiments, a test sample is, or is derived from (e.g., a sample taken from) an in vivo model of a disorder as described herein. For example, a test compound is applied to a test sample comprising one or more C. elegans organisms, and one or more effects of the test compound is evaluated. For example, the ability of a test compound to counteract food aversion in the presence of a chemotherapeutic agent or other nausea-inducing stimulus can be tested. Alternatively, effects on a reporter gene, e.g., ABC transporter gene fusion pgp-5p::gfp, can be evaluated by detecting alterations in GFP fluorescence. As one of skill in the art will appreciate, other reporters could readily be used.
C. elegans food aversion behaviors are induced when animals are exposed to xenobiotics or essential gene inactivations (Melo and Ruvkun, 2012). […] While ˜40% of animals exposed to 25 μg/ml hygromycin display food aversion behavior, ˜15% of animals exposed to 25 μg/ml hygromycin and K. rhizophila carotenoid extract show aversion (FIG. 3E). Similar results were obtained with cisplatin: ˜50% of animals exposed to 1 mM cisplatin display aversion behavior while <20% of animals exposed to 1 mM cisplatin and K. rhizophila carotenoid extract display food aversion (FIG. 3F).

[3] = animals on E. coli OP50 treated with the substance, screened after 50 hours at 20° C.
[4] = animals fed on E. coli expressing the carotenoid

CC(=O)N[C@@H](CS)C(=O)O [N-acetyl cysteine]
induction of pgp-5p::gfp (pgp-5p::gfp [1]; [3]): not significantly different

CC1=CCCC(C)(C)C1/C=C/C(C)=C/C=C/C(C)=C/C=C/C=C(C)/C=C/C=C(C)/C=C/C1=C(C)CCCC1(C)C (stereo not drawn) [alpha-carotene]
induction of pgp-5p::gfp (pgp-5p::gfp [1]; [4]): not significantly different

CC1=C(/C=C/C(C)=C/C=C/C(C)=C/C=C/C=C(C)/C=C/C=C(C)/C=C/C2=C(C)C(=O)[C@@H](O)CC2(C)C)C(C)(C)C[C@H](O)C1=O [astaxanthin]
induction of pgp-5p::gfp (pgp-5p::gfp [1]; [3]): not significantly different

CC1=C(/C=C/C(C)=C/C=C/C(C)=C/C=C/C=C(C)/C=C/C=C(C)/C=C/C2=C(C)CCCC2(C)C)C(C)(C)CCC1 [beta-carotene]
induction of pgp-5p::gfp (pgp-5p::gfp [1]; [3]): not significantly different

N.N.[Cl][Pt][Cl] [cisplatin]
pgp-5p::gfp expression induced by the drug (pgp-5p::gfp [2]): induces pgp-5p::gfp expression | animals that display aversion behavior (C. elegans; 1 mM cisplatin, no extract): ~50% | food aversion induced by the drug (C. elegans): strong food aversion

CC(C)=CCC/C(C)=C/C=C/C(C)=C/C=C/C(C)=C/C=C/C=C(C)/C=C/C=C(C)/C=C/C1C(C)=CCCC1(C)C (stereo not shown) [delta-carotene]
induction of pgp-5p::gfp (pgp-5p::gfp [1]; [4]): not significantly different

CC[C@H]1CN2CCc3cc(OC)c(OC)cc3[C@@H]2C[C@@H]1C[C@H]1NCCc2cc(OC)c(OC)cc21 [emetine]
food aversion induced by the drug (C. elegans): strong food aversion

CC(C)=CCC/C(C)=C/C=C/C(C)=C/C=C/C(C)=C/C=C/C=C(C)/C=C/C=C(\C)CC/C=C(\C)CCC=C(C)C [neurosporene]
induction of pgp-5p::gfp (pgp-5p::gfp [1]; [4]): not significantly different

Cc1c(C)c2c(c(C)c1O)CCC(C)(C(=O)O)O2 (stereo not shown) [trolox]
induction of pgp-5p::gfp (pgp-5p::gfp [1]; [3]): not significantly different

CC(/C=C/C=C(C)/C=C/[C@@]12O[C@]1(C)C[C@@H](O)CC2(C)C)=C\C=C\C=C(C)\C=C\C=C(C)\C=C\[C@@]12O[C@]1(C)C[C@@H](O)CC2(C)C [violaxanthin]
induction of pgp-5p::gfp (pgp-5p::gfp [1]; [4]): not significantly different

CC1=C(/C=C/C(C)=C/C=C/C(C)=C/C=C/C=C(C)/C=C/C=C(C)/C=C/C2=C(C)C[C@@H](O)CC2(C)C)C(C)(C)C[C@H](O)C1 [zeaxanthin]
induction of pgp-5p::gfp (pgp-5p::gfp [1]; [4]): not significantly different
